What is called Ki is the equilibrium dissociation constant of an inhibitor or competing ligand from its target. Low values mean a stronger hold on the target, high ones a looser hold on the target.

Structures are written as SMILES. Where only a bound is given, the exact number is not on record here.

Format in all cases: biochemical
In assay [1] the target is T1, PDE7B (Homo sapiens, UniProt Q9NP56).
T1 construct: cell lysate containing full length PDE7A, PDE7B and PDE1C enzyme; made in house; host or cells: cell lysate
The assay can be described thus: PDE7B [3H]-cAMP scintillation proximity assay (SPA) enzyme inhibition. Particulars: for Ki: full length PDE7B in cell lysate, ~25 nM cAMP, Ki from IC50 by Cheng-Prussof equation; for 1C/7B selectivity: ratio PDE1C Ki / PDE7B Ki. As for the experimental part: (§1) The ability of the compounds of formula (I) to inhibit PDE7 and PDE1 may be measured using the following assay protocol.
(§2) PDE7A, PDE7B and PDE1C enzymes catalyse the hydrolysis of 3′,5′-cyclic adenosine monophosphate (cAMP) to the 5′ adenosine monophosphate, 5′AMP. In a multiwell plate, PDE enzyme, [^3H]-cAMP and the test compounds, are incubated at room temperature. The incubation is terminated by addition of commercially available yttrium silicate scintillation proximity assay (SPA) beads containing zinc sulphate. The yttrium silicate beads preferentially bind linear nucleotides, thus the product of the enzyme reaction, [^3H]-5′AMP binds to the bead to produce a light signal, which is detected by a scintillation counter. The amount of signal produced directly correlates with the amount of product formed, and thus the activity of the enzyme. The maximum signal is obtained where enzyme and substrate are incubated alone. The background signal is measured from wells either containing no enzyme, or from wells containing a supra-maximal concentration of a known PDE 7A/7B/1C inhibitor. Each purified batch of enzyme is quality controlled and its Km, Vmax and specific activity determined from kinetic studies before use in compound inhibition studies. The inhibition of the enzyme, by a test compound, is calculated relative to the maximum and background responses.
(§3) The compound of Example 75 of WO 02/074754, 5′-carboxypropoxy-8′-chloro-spiro[cyclohexane-1-4′-(3′,4′-dihydro)quinazolin]-2′(1′H)-one (referred to as compound A hereafter) was used as a standard for PDE7A and PDE7B. The compound of Example 32 of WO 02/074754, 4-(8′-chloro-2′-oxo-2′,3′-dihydro-1′H-spiro[cyclohexane-1,4′-quinazolin]-6′-yl)benzoic acid (referred to as compound B hereafter) was used as a standard for PDE1C.
(§4) The optimisation of this assay has been carried out using cell lysate containing full length PDE7A, PDE7B and PDE1C enzyme. The concentration of the enzyme in this cell lysate sample is unknown, so the specific activity of the cell lysate is used as a measure to ensure that the same activity per well is used despite any batch-to-batch variation of concentration/activity.
(§5) PDE7A/7B/1C stock enzyme was prepared and kept at −20° C. in appropriately sized aliquots to reduce the number of freeze/thaw cycles. […] PDE7A is diluted to 1/8000, PDE7B to 1/10000 and PDE1C to 1/200000.
(§6) The final assay [cAMP] of ˜25 nM is required, so ˜50 nM [^3H]-cAMP was prepared. 9 ml of substrate solution was prepared by mixing 10.8 μl of [^3H]-cAMP (available from Amersham) with 8975 μl of assay buffer.
(§7) 1 μl test compound was transferred into a suitable multi-well assay plate immediately prior to reagent assay addition, 14 μl enzyme solution was then added to the assay plate, followed by 15 μl substrate solution (ie: final assay volume 30 μl, with a final screening compound concentration of 1 μM for PDE7A and PDE7B and 10 μM for PDE1C). The plate was then sealed using a plate sealer and incubated at room temperature for 45 min on the plate shaker.
(§8) 30 μl Yttrium Silicate PDE4 SPA beads were then added, ensuring constant stirring of the beads to give even distribution in the assay plate. The plate was then sealed using a plate sealer and incubated at room temperature for 30 mins on the plate shaker. The beads were then allowed to settle for 30 mins, before spinning the plates for 1 min at 200 g.
(§9) The plates were then read on a suitable radioactive counter, for example NXT-TopCount™ (available from Perkin Elmer) using the relevant protocol (30 second read time per well).
(§10) The data was fitted to a sigmoid curve using a least squares algorithm.
(§11) The IC50 value was converted to a value using the Cheng-Prussof equation: […]
In general terms: Scintillation proximity formats need no separation of bound from free tracer.

Assay [2] concerns the target T2, PDE7A (Homo sapiens, UniProt Q13946).
T2 construct: cell lysate containing full length PDE7A, PDE7B and PDE1C enzyme; made in house; host or cells: cell lysate
Nature of the assay: PDE7A [3H]-cAMP scintillation proximity assay (SPA) enzyme inhibition. The note with it: for Ki: full length PDE7A in cell lysate, ~25 nM cAMP, Ki from IC50 by Cheng-Prussof equation; for 1C/7A selectivity: ratio PDE1C Ki / PDE7A Ki. As to the method: as §1, §2, §3, §4, §5, §6, §7, §8, §9, §10, §11

Assay [3] deals with T3, PDE1C (Homo sapiens, UniProt Q14123).
T3 construct: cell lysate containing full length PDE7A, PDE7B and PDE1C enzyme; made in house; host or cells: cell lysate
Nature of the assay: PDE1C [3H]-cAMP scintillation proximity assay (SPA) enzyme inhibition. Particulars: full length PDE1C in cell lysate; 75 nM cAMP; Ki from IC50 by Cheng-Prussof equation. As for the experimental part:
as §1, §2, §3, §4, §5
The final assay [cAMP]=75 nM therefore the required solution [cAMP]=0.15 μM (1/2 dilution in assay plate)
as §7, §8, §9, §10, §11

T3 sequence (Q14123 whole entry): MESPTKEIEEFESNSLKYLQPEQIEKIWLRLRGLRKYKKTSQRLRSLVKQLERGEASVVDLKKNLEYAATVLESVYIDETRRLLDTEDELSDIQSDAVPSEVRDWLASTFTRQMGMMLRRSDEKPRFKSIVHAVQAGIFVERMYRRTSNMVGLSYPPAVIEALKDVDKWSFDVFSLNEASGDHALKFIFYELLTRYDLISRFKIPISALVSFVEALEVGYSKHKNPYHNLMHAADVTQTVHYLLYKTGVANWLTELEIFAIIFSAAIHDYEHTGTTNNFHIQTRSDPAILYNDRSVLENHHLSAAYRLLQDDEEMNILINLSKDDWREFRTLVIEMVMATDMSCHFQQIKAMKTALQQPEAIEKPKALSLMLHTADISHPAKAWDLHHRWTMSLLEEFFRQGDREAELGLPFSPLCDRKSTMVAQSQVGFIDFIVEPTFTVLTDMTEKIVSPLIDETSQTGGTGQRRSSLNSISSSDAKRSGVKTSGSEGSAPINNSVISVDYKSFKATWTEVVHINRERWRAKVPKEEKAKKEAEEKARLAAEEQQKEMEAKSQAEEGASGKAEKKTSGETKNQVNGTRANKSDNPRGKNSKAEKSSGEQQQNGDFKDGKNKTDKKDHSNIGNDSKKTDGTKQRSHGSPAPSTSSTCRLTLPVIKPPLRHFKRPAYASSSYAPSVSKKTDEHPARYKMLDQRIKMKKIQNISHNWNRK
T2 sequence (Q13946 whole entry): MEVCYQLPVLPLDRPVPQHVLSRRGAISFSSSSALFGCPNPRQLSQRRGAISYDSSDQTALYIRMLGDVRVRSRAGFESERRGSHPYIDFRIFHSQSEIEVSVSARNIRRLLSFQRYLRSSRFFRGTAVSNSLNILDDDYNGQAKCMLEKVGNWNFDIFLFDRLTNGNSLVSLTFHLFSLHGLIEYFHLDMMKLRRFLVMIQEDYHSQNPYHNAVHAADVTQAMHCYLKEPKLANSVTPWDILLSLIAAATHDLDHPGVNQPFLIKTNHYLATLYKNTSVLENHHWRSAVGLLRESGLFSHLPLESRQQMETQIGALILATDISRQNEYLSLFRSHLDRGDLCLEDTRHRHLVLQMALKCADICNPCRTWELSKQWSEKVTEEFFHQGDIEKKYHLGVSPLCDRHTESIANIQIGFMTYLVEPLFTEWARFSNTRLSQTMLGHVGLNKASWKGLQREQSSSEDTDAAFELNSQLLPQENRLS
T1 sequence (Q9NP56 whole entry): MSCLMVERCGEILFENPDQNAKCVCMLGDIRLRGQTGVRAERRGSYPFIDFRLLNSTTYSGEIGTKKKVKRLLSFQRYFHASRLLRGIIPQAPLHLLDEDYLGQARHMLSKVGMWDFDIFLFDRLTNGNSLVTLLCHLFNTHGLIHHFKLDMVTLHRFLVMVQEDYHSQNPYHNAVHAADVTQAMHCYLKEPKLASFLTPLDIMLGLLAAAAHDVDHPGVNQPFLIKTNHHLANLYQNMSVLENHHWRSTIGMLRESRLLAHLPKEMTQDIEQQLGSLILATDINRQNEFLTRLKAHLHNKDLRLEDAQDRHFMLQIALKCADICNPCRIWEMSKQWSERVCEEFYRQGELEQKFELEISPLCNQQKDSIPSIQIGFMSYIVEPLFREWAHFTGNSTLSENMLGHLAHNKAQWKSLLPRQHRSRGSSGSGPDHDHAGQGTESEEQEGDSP

In the case of `O=C1Nc2c(Cl)ccc(Oc3c(F)cccc3C(=O)O)c2C2(CCCCC2)N1` [Example 6, 2-{(8′-chloro-2′-oxo-2′,3′-dihydro-1′H-spiro[cyclohexane-1,4′-quinazolin]-5′-yl)oxy}-3-fluorobenzoic acid], in assay [1], the affinity, expressed as Ki, was 3.4 nM and the 1C/7B selectivity is 172. In addition, in assay [2], affinity was put at a Ki of 1.7 nM and the 1C/7A selectivity amounted to 336. Also, in assay [3], the Ki was determined as 584 nM.

As to `O=C1Nc2c(F)ccc(Oc3c(Cl)cccc3C(=O)O)c2C2(CCCCC2)N1` [Example 9, 3-chloro-2-{(8′-fluoro-2′-oxo-2′,3′-dihydro-1′H-spiro[cyclohexane-1,4′-quinazolin]-5′-yl)oxy}benzoic acid], the Ki in assay [1] was 41 nM; in assay [2] it was 32 nM; in assay [3], greater than 3750 nM. The 1C/7B selectivity in assay [1] was greater than 92. Also, in assay [2], the 1C/7A selectivity is on record as greater than 116.

For the compound `O=C1Nc2c(Cl)ccc(Oc3ccccc3-c3nn[nH]n3)c2C2(CCCC2)N1` [Example 16, 8′-chloro-5′-[2-(1H-tetrazol-5-yl)phenoxy]-1′H-spiro[cyclopentane-1,4′-quinazolin]-2′(3′H)-one], the Ki in assay [1] turned out to be 9.8 nM; in assay [2] it was 2.3 nM; in assay [3], 778 nM. For the same compound, the 1C/7B selectivity in assay [1] is given as 79. Further, the 1C/7A selectivity in assay [2] is 345.

For the compound `O=C(O)Cc1cccc(F)c1Oc1ccc(Cl)c2c1C1(CCCCC1)NC(=O)N2` [Example 22, {2-[(8′-chloro-2′-oxo-2′,3′-dihydro-1′H-spiro[cyclohexane-1,4′-quinazolin]-5′-yl)oxy]-3-fluorophenyl}acetic acid], in assay [2], the Ki was less than 0.05 nM and the 1C/7A selectivity was greater than 282.

`O=C1Nc2c(Cl)ccc(Oc3ccccc3-c3nnn[nH]3)c2C2(CCCCC2)N1` [Example 17, 8′-chloro-5′-[2-(1H-tetrazol-5-yl)phenoxy]-1′H-spiro[cyclohexane-1,4′-quinazolin]-2′(3′H)-one]: in assay [1], the Ki amounted to 0.8 nM and the 1C/7B selectivity worked out at 48. For the same compound, in assay [2], the Ki is less than 0.15 nM and the 1C/7A selectivity is greater than 245. Moreover, in assay [3], the affinity corresponds to a Ki of 37 nM.

On to `O=C1Nc2c(Cl)ccc(OCc3ccc(C(=O)O)o3)c2C2(CCCCC2)N1` [Compound C, 5-{[(8′-chloro-2′-oxo-2′,3′-dihydro-1′H-spiro[cyclohexane-1,4′-quinazolin]-5′-yl)oxy]methyl}-2-furoic acid, reference compound], for which the Ki was 33 nM in assay [1], 6.7 nM in assay [2] and 305 nM in assay [3]. The 1C/7B selectivity in assay [1] was determined as 9.2. Further, the 1C/7A selectivity in assay [2] came out at 45.

On to `O=C1Nc2c(F)ccc(Oc3c(F)cccc3-c3nn[nH]n3)c2C2(CCCCC2)N1` [Example 12], for which, in assay [1], the Ki stood at 0.7 nM and the 1C/7B selectivity worked out at 123. In assay [2], the Ki was 0.3 nM and the 1C/7A selectivity worked out at 301. This compound also returned a Ki in assay [3] of 89 nM.

For the compound `O=C1Nc2c(Cl)ccc(-c3cccc(C(=O)O)c3)c2C2(CCCCC2)N1` [Example 2], in assay [1], the Ki is 12 nM and the 1C/7B selectivity was greater than 477. In assay [2], the Ki is 3.1 nM and the 1C/7A selectivity was greater than 1810. The compound further registered a Ki in assay [3] greater than 5630 nM.

As for `O=C1Nc2c(Cl)ccc(Oc3c(F)cccc3NS(=O)(=O)C(F)(F)F)c2C2(CCCCC2)N1` [Example 21, N-{2-[(8′-chloro-2′-oxo-2′,3′-dihydro-1′H-spiro[cyclohexane-1,4′-quinazolin]-5′-yl)oxy]-3-fluorophenyl}-1,1,1-trifluoromethanesulfonamide], the Ki in assay [1] is 2.4 nM; in assay [2], 0.2 nM; in assay [3] it was 62 nM. In addition, the 1C/7B selectivity in assay [1] stood at 25. The 1C/7A selectivity in assay [2] was found to be 311.

On to `O=C1Nc2c(Cl)ccc(Oc3c(Cl)cccc3-c3nn[nH]n3)c2C2(CCCC2)N1` [Example 15, 8′-chloro-5′-[6-chloro-2-(1H-tetrazol-5-yl)phenoxy]-1′H-spiro[cyclopentane-1,4′-quinazolin]-2′(3′H)-one], for which, in assay [1], the inhibitory constant (Ki) was determined as 6.6 nM and the 1C/7B selectivity was determined as 164. Besides, in assay [2], the affinity, expressed as Ki, was 5 nM and the 1C/7A selectivity is listed as 217. In assay [3], the Ki worked out at 1080 nM.

`O=C(O)COc1cccc(-c2ccc(Cl)c3c2C2(CCCCC2)NC(=O)N3)c1` [Example 5, [3-(8′-chloro-2′-oxo-2′,3′-dihydro-1′H-spiro[cyclohexane-1,4′-quinazolin]-5′-yl)phenoxy]acetic acid]: in assay [1], affinity was put at a Ki of 51 nM and the 1C/7B selectivity was greater than 113. In addition, in assay [2], the inhibition constant Ki was 4.5 nM and the 1C/7A selectivity was greater than 1260. Also, the Ki in assay [3] is greater than 5730 nM.

As for `O=C1Nc2c(Cl)ccc(Oc3c(F)cccc3-c3nn[nH]n3)c2C2(CCCCC2)N1` [Example 10, 8′-chloro-5′-[2-fluoro-6-(2H-tetrazol-5-yl)phenoxy]-1′H-spiro[cyclohexane-1,4′-quinazolin]-2′(3′H)-one], the results for the Ki in assay [1], in assay [2] and in assay [3] were 0.4 nM, 0.1 nM and 73 nM, respectively. For the same compound, the 1C/7B selectivity in assay [1] was 186. For the same compound, the 1C/7A selectivity in assay [2] is listed as 743.

Take `O=C(O)COc1ccccc1Oc1ccc(Cl)c2c1C1(CCCCC1)NC(=O)N2` [Example 23, {2-[(8′-chloro-2′-oxo-2′,3′-dihydro-1′H-spiro[cyclohexane-1,4′-quinazolin]-5′-yl)oxy]phenoxy}acetic acid]: in assay [1], the Ki was determined as 1.9 nM and the 1C/7B selectivity is given as 31. In assay [2], the Ki was 0.48 nM and the 1C/7A selectivity was 121. Also, the affinity in assay [3], expressed as Ki, was 58 nM.

As for `CS(=O)(=O)NC(=O)c1cccc(F)c1Oc1ccc(Cl)c2c1C1(CCCCC1)NC(=O)N2` [Example 20, 2-[(8′-chloro-2′-oxo-2′,3′-dihydro-1′H-spiro[cyclohexane-1,4′-quinazolin]-5′-yl)oxy]-3-fluoro-N-(methylsulfonyl)benzamide], the inhibitory constant (Ki) in assay [1] was 7 nM; in assay [2] it was 2.3 nM; in assay [3], 657 nM. For the same compound, the 1C/7B selectivity in assay [1] is given as 94. Moreover, the 1C/7A selectivity in assay [2] turned out to be 290.

Turning to `O=C1Nc2c(Cl)cc(-c3ccc(C(=O)O)cc3)cc2C2(CCCCC2)N1` [Compound B, 4-(8′-chloro-2′-oxo-2′,3′-dihydro-1′H-spiro[cyclohexane-1,4′-quinazolin]-6′-yl)benzoic acid, reference compound], the values for the Ki in assay [1], in assay [2] and in assay [3] were 39 nM, 1.5 nM and 1.4 nM, respectively. The 1C/7B selectivity in assay [1] is listed as 0.04. In assay [2], the 1C/7A selectivity was 0.97.

For `O=C(O)COc1ccc(Oc2ccc(Cl)c3c2C2(CCCCC2)NC(=O)N3)cc1` [Example 24, {4-[(8′-chloro-2′-oxo-2′,3′-dihydro-1′H-spiro[cyclohexane-1,4′-quinazolin]-5′-yl)oxy]phenoxy}acetic acid], the figures for the Ki in assay [1], in assay [2] and in assay [3] were 11 nM, 0.98 nM and 157 nM, respectively. Also, in assay [1], the 1C/7B selectivity is 14. Moreover, the 1C/7A selectivity in assay [2] is given as 160.

Source of the values: US20100216823A1 (Pfizer Inc., priority 2007, published 2010).
